Test results published in patent publication US10028960B2, “Pyrimidine compounds as JAK kinase inhibitors” (THERAVANCE BIOPHARMA R&D IP, LLC, priority 2016, dated 2018).
Where two headings read alike, the source gives them in different places.

Legend:
JAK1 = JAK1 (Homo sapiens (Human), UniProt P23458); test: LanthaScreen JAK biochemical assay, JAK1
Protocol: (§1) A panel of four LanthaScreen JAK biochemical assays (JAK1, 2, 3 and Tyk2) were carried in a common kinase reaction buffer (50 mM HEPES, pH 7.5, 0.01% Brij-35, 10 mM MgCl2, and 1 mM EGTA). Recombinant GST-tagged JAK enzymes and a GFP-tagged STAT1 peptide substrate were obtained from Life Technologies.

JAK2 = JAK2 (Homo sapiens (Human), UniProt O60674); test: LanthaScreen JAK biochemical assay, JAK2
Protocol: as §1

JAK3 = JAK3 (Homo sapiens (Human), UniProt P52333); test: LanthaScreen JAK biochemical assay, JAK3
Protocol: as §1

Tyk2 = Tyk2 (Homo sapiens (Human), UniProt P29597); test: LanthaScreen JAK biochemical assay, Tyk2; conditions: read-out: Tyk 2 (pKi) (converted)
Protocol: as §1

[1] = system: IL-13 induced STAT6 phosphorylation in HT-29 human colorectal adenocarcinoma cells; test: Cellular JAK potency assay: inhibition of IL-13 induced STAT6 phosphorylation; format: cell-based; conditions: Homo sapiens; IL-13 induced STAT6 phosphorylation, HT-29 cells; read-out: HT-29 (pIC50) (converted)
[2] = Determination of absorption in cannulated rats; format: in vivo, Sprague Dawley rats; conditions: rat; for bioavailability: Sprague Dawley, plasma (jugular vein), oral vs IV, read-out: oral bioavailability (F %); for absorption at the portal vein (Fa %): oral
Protocol: Oral bioavailability (F %), fraction absorbed (Fa %) and fraction escaping hepatic clearance (Fh %) were determined in Sprague Dawley rats from the following two studies:
(1) Pharmacokinetics in rats following an IV dose of test compound: Following IV dosing, plasma samples were typically collected from 0-6 hr. Drug levels were determined using an LC-MS-MS method. The resulting drug levels were used to compute the IV pharmacokinetic parameters: AUC IV and Dose IV.
(2) Rats that have been cannulated in their portal vein (PV) and also in their jugular vein (JV) were dosed orally with test compound. Following oral dosing, plasma samples were typically collected from 0-6 hr from both the portal vein and the jugular vein. Drug levels were determined using an LC-MS-MS method. The resulting drug levels were used to compute the following pharmacokinetic parameters: AUC PO PV, AUC PO JV, and Dose PO.
Using data derived from the above studies, the oral bioavailability F %, and the quantities Fa % and Fh % were calculated from the following formulas: F %=(AUC PO JV/AUC IV)*(Dose IV/Dose PO)*100 Fa %=(AUC PO PV/AUC IV)*(Dose IV/Dose PO)*100 Fh %=AUC PO JV/AUC PO PV
AUC PO JV=Area under the curve following oral dose and plasma collected from the jugular vein
AUC PO PV=Area under the curve following oral dose and plasma collected from the portal vein
AUC IV=Area under the curve following an intravenous dose
Dose IV=Intravenous Dose in mg/kg
Dose PO=Oral Dose in mg/kg

[3] = system: oxazolone-induced colitis; test: Mouse model of oxazolone-induced colitis; format: in vivo, BALB/C mice; conditions: mouse, PO, 1, 3, and/or 10 mg/kg BID
Protocol: Oxazolone-induced colitis is an experimental model that has a histological resemblance to human ulcerative colitis (Heller et al. […], 2002, 17, 629-638). Adult BALB/C mice from Harlan were used in the assay. On day 1, animals were lightly anesthetized with isoflurane and the hairs between the shoulder were carefully removed before oxazolone (4%, 150 μL, 4:1 acetone: olive oil formulation) or vehicle solution was slowly applied for skin sensitization. Seven days after skin sensitization, the mice were fasted overnight, anesthetized with isoflurane inhalation, and a 1 mL syringe equipped with a 3.5-F catheter, filled with oxazolone solution, was inserted carefully about 4 cm into the colon of the mouse. Following insertion, 50 μL of the oxazolone solution (1%, 1:1 ethanol:water formulation) was injected very slowly (over 30 sec using an injection pump) into the colon. The catheter was removed and the mice were held vertically (head down) for 2 min to ensure that the entire oxazolone solution remained inside the colon. Drug treatment (PO, BID or TID) or vehicle was initiated a day prior to the oxazolone intrarectal (IR) challenge. Two-day post oxazolone intrarectal challenge, the Disease Activity Index (DAI) was assessed by treatment-blinded experimenters for each mouse according to the criteria score: stool consistency score (0, normal; 2, loose; 4, diarrhea), gross bleeding score (0, absence; 2, blood tinged; 4, presence), and weight loss score (0, none; 1, 1%-5%; 2, 5%-10%; 3, 10%-20%; 4, more than 20%); DAI=average of (stool consistency score+gross bleeding score+weight loss score).
Selected compounds of the invention were tested in the assay. Efficacy in the model is evidenced by a decrease in DAI score as compared with the score from vehicle treated animals.

[4] = Dynamic moisture sorption assessment; format: physicochemical; conditions: for weight gain: humidity range of 5% to 90% relative humidity, 25° C.
Protocol: Dynamic moisture sorption (DMS) measurement was performed using a VTI atmospheric microbalance, SGA-100 system (VTI Corp., Hialeah, Fla. 33016). A weighed sample was used and the humidity was lowest possible value (close to 0% RH) at the start of the analysis. The DMS analysis consisted of an initial drying step (0% RH) for 120 minutes, followed by two cycles of sorption and desorption with a scan rate of 5% RH/step over the humidity range of 5% RH to 90% RH. The DMS run was performed isothermally at 25° C.

[5] = system: mouse splenic NK, B and T cells; conditions: in vivo, po
Protocol: Depletion of mouse splenic cells is an experimental model of immunosuppression (Kudlacz et al., Am. J. of Transplantation, 2004, 4, 51-57). The compound of Example 2 was assessed in the mouse splenic cell model following the same treatment paradigm as that used in the oxazolone-induced colitis model (Assay 8).
The compound (1, 10 and 100 mg/kg, BID) and tofacitinib (30 and 60 mg/kg, BID) as a positive control were dosed orally for three days to naïve mice. Spleens were harvested 1 h post last dose and crushed immediately for cell subtype staining. Prior to fixation, fluorophore-labelled antibodies for CD19 (FITC; B cells), CD3e (PE; pan T cells) and DX5 (APC; NK cells) were incubated with splenocyte samples from each animal to allow for simultaneous, multiple subtype % analysis on the flow cytometer. The number of total spleen cells for each animal was measured by Scepter™ 2.0 Handheld Automated Cell Counter.
The absolute number of lymphocyte subtype population (e.g., splenic B, T and NK cells) was calculated from the percentage of each subtype times total spleen cells for each animal. A one way ANOVA, with Dunnett's post hoc test, was used to compare the splenic lymphocytes number of the vehicle and test compound groups. The a level was set at p<0.05. Data were presented as the mean±SEM for each group.

JAK2, sequence (O60674 whole entry): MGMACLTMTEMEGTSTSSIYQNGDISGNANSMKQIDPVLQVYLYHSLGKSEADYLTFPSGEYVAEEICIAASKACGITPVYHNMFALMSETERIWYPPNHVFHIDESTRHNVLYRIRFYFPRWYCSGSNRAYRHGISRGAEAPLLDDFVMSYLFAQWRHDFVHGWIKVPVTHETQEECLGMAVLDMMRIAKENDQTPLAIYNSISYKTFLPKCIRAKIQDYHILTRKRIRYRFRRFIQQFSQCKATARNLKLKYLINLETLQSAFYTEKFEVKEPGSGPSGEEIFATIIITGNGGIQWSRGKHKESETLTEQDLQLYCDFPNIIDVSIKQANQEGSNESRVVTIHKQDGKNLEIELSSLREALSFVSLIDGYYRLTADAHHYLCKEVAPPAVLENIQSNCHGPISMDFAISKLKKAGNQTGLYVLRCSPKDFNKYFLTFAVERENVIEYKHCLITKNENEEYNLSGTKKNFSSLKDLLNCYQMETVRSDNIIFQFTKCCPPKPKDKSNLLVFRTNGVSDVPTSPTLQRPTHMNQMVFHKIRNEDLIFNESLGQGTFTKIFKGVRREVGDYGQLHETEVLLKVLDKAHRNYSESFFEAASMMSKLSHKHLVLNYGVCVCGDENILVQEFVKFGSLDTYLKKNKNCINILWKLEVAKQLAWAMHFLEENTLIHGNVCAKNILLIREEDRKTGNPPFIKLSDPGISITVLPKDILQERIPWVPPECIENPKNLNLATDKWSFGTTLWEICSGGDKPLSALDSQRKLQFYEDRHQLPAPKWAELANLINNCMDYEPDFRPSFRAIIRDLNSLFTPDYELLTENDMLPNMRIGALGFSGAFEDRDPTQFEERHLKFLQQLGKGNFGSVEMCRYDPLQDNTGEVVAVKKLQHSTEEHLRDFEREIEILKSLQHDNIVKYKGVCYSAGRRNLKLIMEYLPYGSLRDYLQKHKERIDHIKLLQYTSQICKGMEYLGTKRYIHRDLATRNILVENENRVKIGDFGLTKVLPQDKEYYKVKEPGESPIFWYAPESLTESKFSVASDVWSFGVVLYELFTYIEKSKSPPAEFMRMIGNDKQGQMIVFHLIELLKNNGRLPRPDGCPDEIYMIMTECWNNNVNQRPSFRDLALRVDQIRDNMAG
JAK1, sequence (P23458 whole entry): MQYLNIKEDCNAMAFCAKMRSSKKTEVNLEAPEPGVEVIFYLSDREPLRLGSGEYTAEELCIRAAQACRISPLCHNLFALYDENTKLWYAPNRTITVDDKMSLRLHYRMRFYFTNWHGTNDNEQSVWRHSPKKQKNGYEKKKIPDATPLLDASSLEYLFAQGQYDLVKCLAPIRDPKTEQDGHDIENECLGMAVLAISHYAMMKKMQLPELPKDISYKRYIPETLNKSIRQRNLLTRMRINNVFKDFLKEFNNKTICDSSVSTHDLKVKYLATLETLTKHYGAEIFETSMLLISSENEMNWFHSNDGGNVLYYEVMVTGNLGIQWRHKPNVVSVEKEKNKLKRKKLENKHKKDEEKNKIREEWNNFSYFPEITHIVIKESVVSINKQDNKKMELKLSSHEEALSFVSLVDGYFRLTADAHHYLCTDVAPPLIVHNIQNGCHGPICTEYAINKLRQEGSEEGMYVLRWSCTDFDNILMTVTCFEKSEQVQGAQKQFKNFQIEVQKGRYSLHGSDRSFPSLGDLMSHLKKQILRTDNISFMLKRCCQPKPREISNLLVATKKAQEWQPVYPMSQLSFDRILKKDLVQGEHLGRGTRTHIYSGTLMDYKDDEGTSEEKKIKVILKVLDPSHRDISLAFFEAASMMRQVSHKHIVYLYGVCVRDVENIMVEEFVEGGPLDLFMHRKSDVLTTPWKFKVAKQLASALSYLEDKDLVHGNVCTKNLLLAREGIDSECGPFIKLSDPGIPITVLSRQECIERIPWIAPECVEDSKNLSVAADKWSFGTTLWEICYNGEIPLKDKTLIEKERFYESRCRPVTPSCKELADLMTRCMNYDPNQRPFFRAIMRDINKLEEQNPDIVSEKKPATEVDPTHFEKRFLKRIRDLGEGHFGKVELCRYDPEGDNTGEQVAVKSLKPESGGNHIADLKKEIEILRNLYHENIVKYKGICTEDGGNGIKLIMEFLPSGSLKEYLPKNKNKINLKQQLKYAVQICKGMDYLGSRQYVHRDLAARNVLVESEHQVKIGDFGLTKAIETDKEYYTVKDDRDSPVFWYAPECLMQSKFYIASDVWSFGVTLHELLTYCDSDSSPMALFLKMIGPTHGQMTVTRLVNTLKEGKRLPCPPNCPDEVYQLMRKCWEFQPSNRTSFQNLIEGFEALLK
JAK3, sequence (P52333 whole entry): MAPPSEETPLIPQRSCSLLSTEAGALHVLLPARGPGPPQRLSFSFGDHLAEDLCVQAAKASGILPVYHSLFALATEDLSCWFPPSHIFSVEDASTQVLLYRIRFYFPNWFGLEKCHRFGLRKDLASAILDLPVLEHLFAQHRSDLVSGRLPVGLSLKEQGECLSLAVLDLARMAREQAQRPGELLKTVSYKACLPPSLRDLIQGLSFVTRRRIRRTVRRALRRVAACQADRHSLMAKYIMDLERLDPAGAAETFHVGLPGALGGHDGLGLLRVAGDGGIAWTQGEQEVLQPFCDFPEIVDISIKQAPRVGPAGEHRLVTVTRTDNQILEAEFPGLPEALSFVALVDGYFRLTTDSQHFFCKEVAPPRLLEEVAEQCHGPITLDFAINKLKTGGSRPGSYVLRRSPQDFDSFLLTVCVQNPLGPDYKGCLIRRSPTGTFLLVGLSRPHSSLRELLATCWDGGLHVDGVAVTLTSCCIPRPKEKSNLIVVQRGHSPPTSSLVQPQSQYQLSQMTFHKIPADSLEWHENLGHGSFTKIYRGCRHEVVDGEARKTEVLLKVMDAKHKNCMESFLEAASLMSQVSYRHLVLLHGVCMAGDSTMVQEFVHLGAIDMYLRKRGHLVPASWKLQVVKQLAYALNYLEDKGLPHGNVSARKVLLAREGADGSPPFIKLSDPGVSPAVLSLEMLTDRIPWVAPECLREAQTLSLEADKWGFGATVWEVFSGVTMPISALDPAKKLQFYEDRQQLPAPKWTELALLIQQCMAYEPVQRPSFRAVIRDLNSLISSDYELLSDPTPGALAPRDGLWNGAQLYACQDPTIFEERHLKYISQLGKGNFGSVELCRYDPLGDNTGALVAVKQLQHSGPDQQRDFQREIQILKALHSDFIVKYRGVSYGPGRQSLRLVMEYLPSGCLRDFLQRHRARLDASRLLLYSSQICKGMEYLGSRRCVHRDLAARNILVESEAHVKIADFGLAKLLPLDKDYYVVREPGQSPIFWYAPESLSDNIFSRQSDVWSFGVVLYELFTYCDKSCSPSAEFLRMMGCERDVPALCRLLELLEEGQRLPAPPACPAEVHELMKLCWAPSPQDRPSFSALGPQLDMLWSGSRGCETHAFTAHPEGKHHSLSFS
Tyk2, sequence (P29597 whole entry): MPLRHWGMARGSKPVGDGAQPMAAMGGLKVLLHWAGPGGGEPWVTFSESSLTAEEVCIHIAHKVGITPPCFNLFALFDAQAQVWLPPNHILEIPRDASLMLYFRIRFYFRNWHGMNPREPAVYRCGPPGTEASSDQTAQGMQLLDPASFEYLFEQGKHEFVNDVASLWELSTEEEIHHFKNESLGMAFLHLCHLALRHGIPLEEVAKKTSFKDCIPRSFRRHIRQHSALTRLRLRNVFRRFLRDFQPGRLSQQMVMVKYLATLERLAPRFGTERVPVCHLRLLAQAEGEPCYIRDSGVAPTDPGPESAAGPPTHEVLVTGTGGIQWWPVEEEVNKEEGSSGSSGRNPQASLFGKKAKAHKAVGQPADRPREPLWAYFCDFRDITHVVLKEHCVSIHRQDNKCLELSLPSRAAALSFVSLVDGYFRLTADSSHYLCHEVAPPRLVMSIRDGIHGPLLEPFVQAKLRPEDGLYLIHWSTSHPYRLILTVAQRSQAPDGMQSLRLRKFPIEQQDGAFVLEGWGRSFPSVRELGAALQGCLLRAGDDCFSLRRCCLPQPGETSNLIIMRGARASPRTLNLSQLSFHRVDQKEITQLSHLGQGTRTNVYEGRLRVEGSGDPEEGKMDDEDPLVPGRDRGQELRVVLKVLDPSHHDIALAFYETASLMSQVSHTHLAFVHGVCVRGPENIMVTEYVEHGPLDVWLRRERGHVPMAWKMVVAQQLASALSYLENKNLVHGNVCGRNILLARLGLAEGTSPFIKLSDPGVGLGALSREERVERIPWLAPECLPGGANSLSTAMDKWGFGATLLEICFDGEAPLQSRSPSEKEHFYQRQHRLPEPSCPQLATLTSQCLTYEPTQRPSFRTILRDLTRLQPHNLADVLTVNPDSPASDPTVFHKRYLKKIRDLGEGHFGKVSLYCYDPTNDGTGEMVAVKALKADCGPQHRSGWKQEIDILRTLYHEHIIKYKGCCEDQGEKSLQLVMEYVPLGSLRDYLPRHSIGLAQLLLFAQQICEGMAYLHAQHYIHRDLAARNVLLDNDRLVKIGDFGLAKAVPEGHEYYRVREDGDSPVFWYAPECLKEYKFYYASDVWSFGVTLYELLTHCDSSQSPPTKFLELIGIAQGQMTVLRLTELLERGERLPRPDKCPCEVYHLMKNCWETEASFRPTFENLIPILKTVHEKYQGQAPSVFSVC

| Compound | JAK 2 (pKi) (JAK2) | Ki (Tyk2) [nM] | IC50 [1] [nM] | bioavailability [2] [%] | absorption at the portal vein (Fa %) [2] | decrease in DAI score as compared with vehicle treated animals [3] | weight gain [4] | other results |
| --- | --- | --- | --- | --- | --- | --- | --- | --- |
| COc1cc(Nc2cc(CO)[nH]n2)nc(N(C)[C@@H]2C[C@H]3CC[C@@H](C2)N3S(=O)(=O)N2CC(C#N)C2)n1 [Example 1, 1-(((1R,3s,5S)-3-((4-((5-(Hydroxymethyl)-1H-pyrazol-3-yl)amino)-6-methoxypyrimidin-2-yl)(methyl)amino)-8-azabicyclo[3.2.1]octan-8-yl)sulfonyl)azetidine-3-carbonitrile] | A (A represents a pKi value≥10 (Ki≤0.1 nM)) | 0.1 to 1 | 31.6 to 200 | < 5 | less than 25% | did not exhibit a statistically significant decrease | – | JAK 1 (pKi) (JAK1): A (A represents a pKi value≥10 (Ki≤0.1 nM)); Ki (JAK3): 1 to 10 nM |
| COCCS(=O)(=O)N1[C@@H]2CCC[C@H]1C[C@H](N(C)c1nc(Nc3cc(CO)[nH]n3)cc(OC)n1)C2 [Example 4, (3-((6-methoxy-2-(((1R,3s,5S)-9-((2-methoxyethyl)sulfonyl)-9-azabicyclo[3.3.1]nonan-3-yl)(methyl)amino)pyrimidin-4-yl)amino)-1H-pyrazol-5-yl)methanol] | A (A represents a pKi value≥10 (Ki≤0.1 nM)) | 0.1 to 1 | 31.6 to 200 | < 5 | greater than 40% | statistically significant decrease | – | Ki (JAK1; read-out: JAK 1 (pKi) (converted)): 0.1 to 1 nM; Ki (JAK3; read-out: JAK 3 (pKi) (converted)): 1 to 10 nM |
| COc1cc(Nc2cc(CO)[nH]n2)nc(N(C)[C@@H]2C[C@H]3CCC[C@@H](C2)N3S(=O)(=O)N2CC(C#N)C2)n1 [Form I, 1-(((1R,3s,5S)-3-((4-((5-(hydroxymethyl)-1H-pyrazol-3-yl)amino)-6-methoxypyrimidin-2-yl)(methyl)amino)-9-azabicyclo[3.3.1]nonan-9-yl)sulfonyl)azetidine-3-carbonitrile] | – | – | – | – | – | – | less than 0.4% | – |
| COc1cc(Nc2cc(CO)[nH]n2)nc(N(C)[C@@H]2C[C@H]3CCC[C@@H](C2)N3S(=O)(=O)N2CC(C#N)C2)n1 [Form II, 1-(((1R,3s,5S)-3-((4-((5-(hydroxymethyl)-1H-pyrazol-3-yl)amino)-6-methoxypyrimidin-2-yl)(methyl)amino)-9-azabicyclo[3.3.1]nonan-9-yl)sulfonyl)azetidine-3-carbonitrile] | – | – | – | – | – | – | about 1.2% | hygroscopicity ([4]; 5% to 90% relative humidity): slightly hygroscopic |
| C[C@@H]1CCN(C(=O)CC#N)C[C@@H]1N(C)c1ncnc2[nH]ccc12 [tofacitinib, reference compound] | – | – | – | – | – | – | – | treatment effect on B and T cell populations [5]: No treatment effect |
